PubChem BioAssay AID330 (DTP/NCI, 2004)
Where “and” joins values, the source holds several entries; their conditions need not be identical. Equal entries are not always repeated. Toxic doses and inconclusive results are not listed.

Test system: P388 leukemia ip, CD2F1 mice, survival T/C
Assay: NCI In Vivo Anticancer Drug Screen. Data for tumor model P388 Leukemia (intraperitoneal) in CD2F1 (CDF1) mice
Conditions: endpoint: median survival time, higher = longer survival
Summary of the method: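 Mice carrying the transplanted tumor received test compound or vehicle. Survival was recorded in each group, and the value is the treated-group measurement divided by that of the vehicle-treated control group.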

[1] = dose: 50.0 mg/kg/injection, schedule: Q04DX003 (ip), vehicle: saline with Tween-80
[2] = dose: 100.0 mg/kg/injection, schedule: Q04DX003 (ip), vehicle: saline with Tween-80
[3] = dose: 200.0 mg/kg/injection, schedule: Q04DX003 (ip), vehicle: saline with Tween-80
[4] = dose: 60.0 mg/kg/injection, schedule: Q01DX005 (ip), vehicle: Klucel (hydroxypropylcellulose) (HPC)
[5] = dose: 120.0 mg/kg/injection, schedule: Q01DX005 (ip), vehicle: Klucel (hydroxypropylcellulose) (HPC)
[6] = dose: 240.0 mg/kg/injection, schedule: Q01DX005 (ip), vehicle: Klucel (hydroxypropylcellulose) (HPC)
[7] = dose: 50.0 mg/kg/injection, schedule: Q01DX005 (ip), vehicle: saline
[8] = dose: 100.0 mg/kg/injection, schedule: Q01DX005 (ip), vehicle: saline
[9] = dose: 200.0 mg/kg/injection, schedule: Q01DX005 (ip), vehicle: saline
[10] = dose: 25.0 mg/kg/injection, schedule: Q01DX009 (ip), vehicle: saline with Tween-80
[11] = dose: 50.0 mg/kg/injection, schedule: Q01DX009 (ip), vehicle: saline with Tween-80
[12] = dose: 100.0 mg/kg/injection, schedule: Q01DX009 (ip), vehicle: saline with Tween-80
[13] = dose: 200.0 mg/kg/injection, schedule: Q01DX009 (ip), vehicle: saline with Tween-80
[14] = dose: 60.0 mg/kg/injection, schedule: Q01DX005 (ip), vehicle: saline with Tween-80
[15] = dose: 120.0 mg/kg/injection, schedule: Q01DX005 (ip), vehicle: saline with Tween-80
[16] = dose: 400.0 mg/kg/injection, schedule: Q04DX003 (ip), vehicle: saline with Tween-80
[17] = dose: 50.0 mg/kg/injection, schedule: Q01DX009 (ip), vehicle: saline
[18] = dose: 6.25 mg/kg/injection, schedule: Q01DX009 (ip), vehicle: Klucel (hydroxypropylcellulose) (HPC)
[19] = dose: 50.0 mg/kg/injection, schedule: Q01DX005 (ip), vehicle: Klucel (hydroxypropylcellulose) (HPC)
[20] = dose: 100.0 mg/kg/injection, schedule: Q01DX005 (ip), vehicle: Klucel (hydroxypropylcellulose) (HPC)
[21] = dose: 200.0 mg/kg/injection, schedule: Q01DX005 (ip), vehicle: Klucel (hydroxypropylcellulose) (HPC)

CC(C)(C)c1cc(C(C)(C)O)c2c(c1)C(C)(C)OS2
T/C [1]: 99 % of control
T/C [2]: 106 % of control
T/C [3]: 100 % of control

Cc1no[n+]([O-])c1C(=O)NN
T/C [4]: 103 % of control
T/C [5]: 94 % of control
T/C [6]: 100 % of control

NC(=O)NCP(=O)(CNC(N)=O)CNC(N)=O
T/C [7]: 100 % of control
T/C [8]: 97 % of control
T/C [9]: 95 % of control

CCCN(CCC)C(=O)c1ccc([N+](=O)[O-])cc1
T/C [10]: 106 % of control
T/C [11]: 113 % of control
T/C [12]: 100 % of control and 104 % of control
T/C [13]: 106 % of control

CC1CN1c1nc(N2CC2C)nc(N2CC2C)n1 (stereo not drawn)
T/C (dose: 1.56 mg/kg/injection, schedule: Q01DX009 (ip), vehicle: saline with Tween-80): 94 % of control
T/C (dose: 3.13 mg/kg/injection, schedule: Q01DX009 (ip), vehicle: saline with Tween-80): 98 % of control

O=C1CCC2ON=C(Br)C12 (stereo not drawn)
T/C (dose: 20.0 mg/kg/injection, schedule: Q01DX005 (ip), vehicle: distilled water + Tween-80): 110 % of control
T/C (dose: 40.0 mg/kg/injection, schedule: Q01DX005 (ip), vehicle: distilled water + Tween-80): 112 % of control
T/C (dose: 80.0 mg/kg/injection, schedule: Q01DX005 (ip), vehicle: distilled water + Tween-80): 112 % of control

CCc1nc(N)nc(N)c1-c1ccc(N2CCNCC2)c([N+](=O)[O-])c1
T/C [14]: 106 % of control
T/C [15]: 112 % of control

CC1OCOC(CO)C(O)C1O (stereo not drawn)
T/C [7]: 101 % of control
T/C [8]: 105 % of control
T/C [9]: 105 % of control

O=C1C=CC(=O)N1c1cccc2c1CCCC2
T/C (dose: 6.25 mg/kg/injection, schedule: Q01DX009 (ip), vehicle: saline with Tween-80): 105 % of control
T/C (dose: 12.5 mg/kg/injection, schedule: Q01DX009 (ip), vehicle: saline with Tween-80): 114 % of control

CC1(C)CC2(CC3(C1)SCCS3)OCCO2
T/C [2]: 98 % of control
T/C [3]: 99 % of control
T/C [16]: 97 % of control

O=C1C=CC(=Nc2cc(Cl)c(O)c(Cl)c2)C=C1Cl
T/C (dose: 12.5 mg/kg/injection, schedule: Q01DX005 (ip), vehicle: saline): 96 % of control
T/C (dose: 25.0 mg/kg/injection, schedule: Q01DX005 (ip), vehicle: saline): 100 % of control
T/C [7]: 93 % of control

CCC(=O)OC1C(OC2C(C)C(OC3CC(C)(OC)C(O)C(C)O3)C(C)C(=O)OC(CC)C(C)(O)C(O)C(C)C(=O)C(C)CC2(C)O)OC(C)CC1N(C)C (stereo not drawn)
T/C [17]: 105 % of control
T/C (dose: 100.0 mg/kg/injection, schedule: Q01DX009 (ip), vehicle: saline): 97 % of control
T/C (dose: 200.0 mg/kg/injection, schedule: Q01DX009 (ip), vehicle: saline): 92 % of control

CCN(CC)C1C2=C(CCCC2)OS(=O)(=O)C1c1ccccc1 (stereo not drawn)
T/C [4]: 103 % of control
T/C [5]: 97 % of control
T/C [6]: 95 % of control

CC(C)(C)OC(=O)C(N)C(F)C(=O)OC(C)(C)C (stereo not drawn)
T/C (dose: 25.0 mg/kg/injection, schedule: Q04DX003 (ip), vehicle: saline with Tween-80): 96 % of control
T/C [1]: 101 % of control
T/C [2]: 99 % of control and 104 % of control
T/C [16]: 97 % of control

Oc1ccccc1C=NCc1ccccc1.[CH-]=C([CH2-])C.[Pd+2]
T/C [18]: 107 % of control
T/C (dose: 6.25 mg/kg/injection, schedule: Q04DX003 (ip), vehicle: Klucel (hydroxypropylcellulose) (HPC)): 92 % of control
T/C (dose: 12.5 mg/kg/injection, schedule: Q01DX009 (ip), vehicle: Klucel (hydroxypropylcellulose) (HPC)): 106 % of control
T/C (dose: 12.5 mg/kg/injection, schedule: Q04DX003 (ip), vehicle: Klucel (hydroxypropylcellulose) (HPC)): 113 % of control
T/C (dose: 25.0 mg/kg/injection, schedule: Q01DX009 (ip), vehicle: Klucel (hydroxypropylcellulose) (HPC)): 106 % of control
T/C (dose: 25.0 mg/kg/injection, schedule: Q04DX003 (ip), vehicle: Klucel (hydroxypropylcellulose) (HPC)): 111 % of control

CCOC(=O)c1cn(CC)c2cc(-n3cccc3)c(F)cc2c1=O
T/C [14]: 98 % of control
T/C [15]: 97 % of control
T/C (dose: 240.0 mg/kg/injection, schedule: Q01DX005 (ip), vehicle: saline with Tween-80): 94 % of control

O=C1OC[C@@H]2C=CC[C@H]12
T/C [7]: 100 % of control
T/C [8]: 100 % of control
T/C [9]: 107 % of control

COc1ccc(CSCC(NC(=O)OC(C)(C)C)C(=O)O)cc1 (stereo not drawn)
T/C [19]: 105 % of control
T/C [20]: 97 % of control
T/C [21]: 100 % of control

CNC(=O)OCc1ccc(NCCN(C)C)c2c(=O)c3cc(OS(=O)(=O)c4ccc(C)cc4)ccc3oc12
T/C (dose: 25.0 mg/kg/injection, schedule: Q01DX005 (ip), vehicle: water): 90 % of control
T/C (dose: 50.0 mg/kg/injection, schedule: Q01DX005 (ip), vehicle: water): 100 % of control
T/C (dose: 100.0 mg/kg/injection, schedule: Q01DX005 (ip), vehicle: water): 102 % of control
T/C (dose: 200.0 mg/kg/injection, schedule: Q01DX005 (ip), vehicle: water): 106 % of control

CC12C=C3C4(CCCC3(O1)c1ccccc12)OCCO4 (stereo not drawn)
T/C [11]: 96 % of control
T/C [12]: 102 % of control
T/C [13]: 99 % of control

C[n+]1c(-c2ccccc2)c2ccccn2c1Sc1n2ccccc2c(-c2ccccc2)[n+]1C
T/C (dose: 1.56 mg/kg/injection, schedule: Q01DX009 (ip), vehicle: Klucel (hydroxypropylcellulose) (HPC)): 100 % of control
T/C (dose: 3.12 mg/kg/injection, schedule: Q01DX009 (ip), vehicle: Klucel (hydroxypropylcellulose) (HPC)): 102 % of control
T/C [18]: 90 % of control and 97 % of control

O=NNc1ccc(-c2ccccc2)cn1
T/C (dose: 6.25 mg/kg/injection, schedule: Q01DX009 (ip), vehicle: saline): 101 % of control
T/C (dose: 25.0 mg/kg/injection, schedule: Q01DX009 (ip), vehicle: saline): 181 % of control
T/C [17]: 108 % of control

CCCCCCCCCCCCCCCC(=O)N(CCCN(CC)CC)C(C)CCCN(CC)CC (stereo not drawn)
T/C (dose: 0.38 mg/kg/injection, schedule: Q01DX009 (ip), vehicle: water): 96 % of control
T/C (dose: 0.75 mg/kg/injection, schedule: Q01DX009 (ip), vehicle: water): 98 % of control
T/C (dose: 1.5 mg/kg/injection, schedule: Q01DX009 (ip), vehicle: water): 98 % of control
T/C (dose: 3.0 mg/kg/injection, schedule: Q01DX009 (ip), vehicle: water): 95 % of control
T/C (dose: 6.0 mg/kg/injection, schedule: Q01DX009 (ip), vehicle: water): 92 % of control

O=C(O)/C=C/C(=O)OCCBr
T/C [11]: 104 % of control
T/C [1]: 120 % of control
T/C [12]: 100 % of control
T/C [2]: 120 % of control
T/C [13]: 95 % of control
T/C [3]: 100 % of control

Cc1ccc(C)c2c1-c1ccccc1S2(=O)=O
T/C [10]: 110 % of control
T/C [11]: 111 % of control
T/C [12]: 109 % of control
T/C [13]: 102 % of control

O=C(NCCN1CCCCC1)c1ccc(Cl)cc1Cl
T/C (dose: 50.0 mg/kg/injection, schedule: Q01DX009 (ip), vehicle: Klucel (hydroxypropylcellulose) (HPC)): 101 % of control
T/C (dose: 100.0 mg/kg/injection, schedule: Q01DX009 (ip), vehicle: Klucel (hydroxypropylcellulose) (HPC)): 98 % of control

O=C1c2ccccc2CC2CCCCC12 (stereo not drawn)
T/C [11]: 103 % of control
T/C [12]: 102 % of control
T/C [13]: 108 % of control

CCc1nc(N)nc(N)c1-c1ccc2c(c1)nnn2C1CCCCC1
T/C (dose: 50.0 mg/kg/injection, schedule: Q01DX005 (ip), vehicle: saline with Tween-80): 100 % of control
T/C (dose: 100.0 mg/kg/injection, schedule: Q01DX005 (ip), vehicle: saline with Tween-80): 100 % of control
T/C (dose: 200.0 mg/kg/injection, schedule: Q01DX005 (ip), vehicle: saline with Tween-80): 87 % of control

CC1(C)OC2(C)CCC1C1C2N1C(=O)c1ccccc1 (stereo not drawn)
T/C [19]: 94 % of control
T/C [20]: 102 % of control
T/C [21]: 102 % of control

CNS(=O)(=O)c1c([O-])on[n+]1-c1ccccc1
T/C [4]: 99 % of control
T/C [5]: 104 % of control
T/C [6]: 86 % of control
